Literature values as cited in patent publication US20260091069A1, “TRANS[…] TRA[…] REGULATED ONCOLYTIC HERPES SIMPLEX VIRUS VECTORS” (VIROGIN BIOTECH CANADA LTD, priority 2021, published 2026).

Settings: clinical dose of Ganciclovir

## Nc1nc(O)c2ncn(COC(CO)CO)c2n1 [Ganciclovir]
  Cmax in humans: 9000 ng/mL
